Test results reported in patent US20140378679A1, “CRYSTALLINE CARBOHYDRATE DERIVATIVE” (GLYCOM A/S, priority 2008, published 2014).

Columns and labels:
[1] = Anomeric stability in D2O solution followed by 1H-NMR; format: physicochemical; conditions: 10 mg in 700 μL D2O, room temperature; 1H-NMR recorded immediately and a day later
Experimental: 10 mg pure α-lactosamine hydrochloride was dissolved in 700 μL D2O, then 1H-NMR spectrum was recorded immediately. A second 1H-NMR spectra was recorded a day later, by which time the clean substance had already anomerized. On first spectrum (FIG. 3, above) at 5.26 ppm the H-1 and at 4.29 ppm the H-1′ can be seen. On the second spectrum (FIG. 3, below) next to the alpha anomer already the beta appears. At 4.78 ppm H-1-beta and at 2.85 ppm H-2-beta can be seen.

melting point [°C] | Structure (SMILES) | anomerization of the pure alpha anomer in solution (appearance of beta anomer) [1]
174 | Cl.N[C@@H]1[C@@H](O)[C@H](O[C@@H]2O[C@H](CO)[C@H](O)[C@H](O)[C@H]2O)[C@@H](CO)O[C@@H]1O (hydrate or solvate) [α-lactosamine hydrochloride] | –
– | Cl.N[C@@H]1[C@@H](O)[C@H](O[C@@H]2O[C@H](CO)[C@H](O)[C@H](O)[C@H]2O)[C@@H](CO)O[C@@H]1O [α-lactosamine hydrochloride] | anomerizes at room temperature within one day
